Reference: paper PMC5750218, “Protein-inspired antibiotics active against vancomycin- and daptomycin-resistant bacteria” (Nature Communications, 2018)
In brackets after ≈: the same amount, converted by molar mass. Where two headings read alike, the source gives them in different places. Values belong to the compound of their own block, whether it stands above or below them.

Columns and labels:
S. pneumoniae ATCC 33400 = experiment: microbe, parasite or virus in culture; type: cell-based, Streptococcus pneumoniae; conditions: Streptococcus pneumoniae, ATCC33400, 24 h
Procedure: (§1) The compounds, along with standard antibiotics were serially diluted twofold across the wells of 96-well non-binding surface (NBS) polystyrene plates (Corning 3641). […] Standards ranged from 64 to 0.03 µg mL^−1 and compounds from 8 to 0.003 µg mL^−1 with final assay volumes of 100 µL per well. Gram-positive bacteria were cultured in Mueller Hinton broth (MHB) (Bactolaboratories, Cat. no. 211443) at 37 °C overnight. A sample of each culture was then diluted 40-fold in fresh MHB and incubated at 37 °C for 2–3 h. The resultant mid-log phase cultures were added to the compound-containing 96-well plates to give a final cell density of 5 × 10^5 colony forming unit (CFU) mL^−1. All the plates were covered and incubated at 37 °C for 24 h. MICs were the lowest concentration showing no visible growth.

[1] = system: S. pneumoniae ATCC 700677 MDR; experiment: microbe, parasite or virus in culture; type: cell-based, Streptococcus pneumoniae; conditions: Streptococcus pneumoniae, ATCC700677, 24 h
Procedure: as §1

[2] = system: Vancomycin-resistant (VanA) Enterococcus faecium ATCC 51559; experiment: microbe, parasite or virus in culture; conditions: for MIC VRE: ATCC 51559
How it was run: (§2)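 Overnight cultures in MHB were diluted 40-fold and regrown 2–3 h at 37 °C, then exposed to twofold compound dilutions (8 to 0.003 µg mL^−1) for 24 h at 37 °C. The lowest concentration without visible growth was recorded as the MIC.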

[3] = system: Multi-drug-resistant S. pneumoniae ATCC 700677; experiment: microbe, parasite or virus in culture; conditions: for MIC MDR S.P.: ATCC 700677
How it was run: as §2

[4] = system: Vancomycin-intermediate S. aureus NRS1; experiment: microbe, parasite or virus in culture; conditions: for MIC VISA: Vancomycin-intermediate NRS1
How it was run: as §2

[5] = system: Methicillin-resistant S. aureus ATCC 43300; experiment: microbe, parasite or virus in culture; conditions: for MIC MRSA: ATCC 43300, 24 h
How it was run: as §2

Cytotoxicity MTT assay [6] = type: cell-based, human; conditions: human
Procedure: (§3) Compound cytotoxicity was evaluated against HepG2 (ATCC-®HB-8065 liver hepatoceullular carcinoma) and HEK293 (ATCC®CRL-1573, embryonic kidney) human cell lines using standard (3-(4,5-dimethylthiazol-2-yl)−2,5-diphenyltetrazolium bromide (MTT) assay protocol with slight changes. In brief, HepG2 and HEK293 cells (assessed annually for mycoplasma contamination) were seeded as 1.5 × 10^4 cells per well in a clear 96-well tissue culture treated plate in a final volume of 100 μL in Dulbecco’s Modified Eagle Medium (DMEM)(GIBCO-Invitrogen #11995-073), in which 1% of FBS was added. Cells were incubated for 24 h at 37 °C, 5% CO2 to allow cells to attach to the plates. Compounds prepared at 100 µM to 0.046 µM in threefold dilutions were added into each well and incubated for 24 h at 37 °C, 5% CO2. After the incubation, 0.4 mg mL^−1 MTT (3-(4,5-dimethylthiazol-2-yl)−2,5-diphenyltetrazolium bromide) (Invitrogen) was added to each well. The plates were then incubated for 2 h at 37 °C, 5% CO2. The media was removed, and purple formazan crystals were resuspended in 60 μL of DMSO. The absorbance was read at 570 nm using a Polarstar Omega plate reader. The data was then analysed by Prism software. Results are presented as the average percentage of control ± S.D. for each set of duplicate wells using the following equation: percent viability = (ABSTEST – ABSPOSITIVE CTRL / ABSUNTREATED –ABS POSITIVE CTRL)×100.

[7] = system: S. aureus ATCC 43300 MRSA; experiment: microbe, parasite or virus in culture; type: cell-based, Staphylococcus aureus; conditions: Staphylococcus aureus, 24 h
Procedure: as §1

Cytotoxicity MTT assay [8] = type: cell-based, human; conditions: human; remark: listed apart in the source
Procedure: as §3, with “Compounds prepared at 100 µM to 0.046 µM in threefold dilutions were added into each well and incubated for 24 h at 37 °C, 5% CO2.” left out

[9] = system: Vancomycin-resistant S. aureus NARSA VRS4; experiment: microbe, parasite or virus in culture; type: cell-based, Staphylococcus aureus; conditions: for MIC VRSA: Vancomycin-resistant NARSA VRS4
[10] = 37 °C, 20 µM
Procedure: (§4) Briefly, test compounds (20 μM) were prepared from a 0.2 mM H2O stock solution (40 μL in 400 μL assay volume) except eucatropine, which was 300 μg mL^−1 in 100% DMSO (10 μL in 400 μL assay volume equivalent to 23 μM). The precipitating solution was prepared by adding 5 μL of 10 mM carbutamide in DMSO to 100 mL acetonitrile (final concentration: 135.5 ng mL^−1 or 0.5 μM carbutamide). The human plasma sample (pooled normal human plasma sodium heparin anticoagulant, 2 µL, Cat No.: [sequence], BioReclamation) and phosphate-buffer saline (PBS, pH 7.4 isotonic) were pre-heated at 37 °C for 30 min. 40 μL of test compounds (0.2 mM) were added to protein-low binding Eppendorf tubes, 160 μL of buffer was added, and the mixture was vortexed. For eucatropine, 10 μL of eucatropine (300 μg mL^−1) was added to a protein-low binding Eppendorf tube, 190 μL of buffer was added, and the mixture was vortexed. In each case, 200 μL of plasma was added and the resultant mixture vortexed. For the initial time point (reaction time t = 0 h), 50 μL of sample was immediately transferred into a protein-low binding Eppendorf tube and quenched with 150 μL of the ice-cold precipitating solution, followed by vortexing and subsequent storage at 4 °C. For the remaining time points, the plasma solution was incubated and shaken (150 rpm) at 37 °C. 50 μL aliquots were collected at time points of 0, 1, 3, 6 and 24 h and quenched with 150 μL the ice-cold precipitating solution. All samples were placed in a 4 °C fridge for 30 min then centrifuged at 14,000 × g for 8 min at 4 °C. The supernatant (100 μL) was transferred to a glass vial insert and stored at 4 °C until LC-MS/MS analysis. The percentage of test compounds remaining at the individual time points relative to sample at time point 0 h were reported.

in vitro = conditions: human, 50% human plasma (pooled, sodium heparin) in PBS, pH 7.4
Procedure: as §4

Haemolysis assay = type: cell-based; conditions: human, whole blood
Procedure: Haemolytic activity was measured as previously described with slight modifications, [45]. Fresh human venal blood was collected from healthy volunteers and pretreated with the anticoagulant sodium citrate. Serial twofold dilutions of each antibiotic, dissolved in 0.9% NaCl solution, were added to fresh human whole blood (50% final, vol:vol) to the final volume of 80 μL and incubated at 37 °C for 3 h on a horizontal shaker at 200 rpm. For negative and positive controls, human whole blood in 0.9% NaCl solution (A blank) and in sdH2O (A water) were used, respectively. After incubation, both test and A blank were mixed with 1 mL 0.9% NaCl solution, or sdH2O for the complete […] A water. After centrifugation of samples at 2500 rpm (700 × g) for 5 min, the release of haemoglobin was monitored by measuring the absorbance (A sample) of the supernatant at 540 nm using BMG Labtech PolarStar Omega multimode reader. The percentage of haemolysis was calculated according to the equation: %haemolysis=Asample-Ablank∕Awater-Ablank×100

Compound: CCCCCCCCCCNCCN[C@@]1(C)C[C@H](O[C@H]2[C@H](Oc3c4cc5cc3Oc3ccc(cc3Cl)[C@@H](O)[C@@H](NC(=O)[C@@H](CC(C)C)NC)C(=O)N[C@@H](CC(N)=O)C(=O)N[C@H]5C(=O)N[C@H]3C(=O)N[C@H](C(=O)N[C@H](C(=O)O)c5cc(O)c(CNCP(=O)(O)O)c(O)c5-c5cc3ccc5O)[C@H](O)c3ccc(c(Cl)c3)O4)O[C@H](CO)[C@@H](O)[C@@H]2O)O[C@@H](C)[C@H]1O [Compound 2, Telavancin]
MIC (S. pneumoniae ATCC 33400; read-out: MIC S. pneumoniae ATCC 33400, 1% Survanta): 0.25 µg/mL (≈ 0.142 µM)
MIC (S. pneumoniae ATCC 33400; read-out: MIC S. pneumoniae ATCC 33400, 5% Survanta): 0.5 µg/mL (≈ 0.285 µM)
MIC (S. pneumoniae ATCC 33400; read-out: MIC S. pneumoniae ATCC 33400, no added Survanta): 0.125 to 0.25 µg/mL (≈ 0.0712 to 0.142 µM)
MIC ([1]; read-out: MIC S. pneumoniae ATCC 700677 MDR, 1% Survanta): 0.06 to 0.125 µg/mL (≈ 0.0342 to 0.0712 µM)
MIC ([1]; read-out: MIC S. pneumoniae ATCC 700677 MDR, 5% Survanta): 0.25 µg/mL (≈ 0.142 µM)
MIC ([1]; read-out: MIC S. pneumoniae ATCC 700677 MDR, no added Survanta): 0.06 to 0.125 µg/mL (≈ 0.0342 to 0.0712 µM)
MIC ([2]; Enterococcus faecium, ATCC51559 / VRE, read-out: MIC VRE): 2 µg/mL (≈ 1.14 µM)
MIC ([3]; Streptococcus pneumoniae, ATCC700677, read-out: MIC MDR S.P.): 0.06 µg/mL (≈ 0.0342 µM)
MIC ([4]; Staphylococcus aureus, NRS1 / VISA, read-out: MIC VISA): 0.25 µg/mL (≈ 0.142 µM)
MIC ([5]; Staphylococcus aureus, ATCC43300|MRSA, 24 h, read-out: MIC MRSA, S. aureus ATCC 43300, NBS plates, MHB, 24 h, substance alone): 0.03 µg/mL (≈ 0.0171 µM)
CC50 at 24 h (Cytotoxicity MTT assay [6]; 24 h, MTT, 1% FBS, read-out: Cytotoxicity CC50 HEK293): > 100 µM
MIC ([7]; read-out: MIC S. aureus ATCC 43300 MRSA, 1% Survanta): 0.126 µg/mL (≈ 0.0715 µM)
MIC ([7]; read-out: MIC S. aureus ATCC 43300 MRSA, 5% Survanta): 0.25 to 0.5 µg/mL (≈ 0.142 to 0.285 µM)
MIC ([7]; read-out: MIC S. aureus ATCC 43300 MRSA, no added Survanta): 0.125 µg/mL (≈ 0.0712 µM)
CC50 at 24 h (Cytotoxicity MTT assay [8]; 24 h, MTT, 1% FBS, read-out: Cytotoxicity CC50 HepG2): > 100 µM
MIC ([9]; Staphylococcus aureus, VRSA, read-out: MIC VRSA): 1 µg/mL (≈ 0.57 µM)

MIC VRSA [9]: >8 µg/mL
Compound: CN[C@H](CC(C)C)C(=O)N[C@H]1C(=O)N[C@@H](CC(N)=O)C(=O)N[C@H]2C(=O)N[C@H]3C(=O)N[C@H](C(=O)N[C@H](C(=O)NCCCC[C@H](NC(=O)[C@H](CCCCN)NC(=O)[C@H](CCCCN)NC(C)=O)C(=O)O)c4cc(O)cc(O)c4-c4cc3ccc4O)[C@H](O)c3ccc(c(Cl)c3)Oc3cc2cc(c3O[C@@H]2O[C@H](CO)[C@@H](O)[C@H](O)[C@H]2O[C@H]2C[C@](C)(N)[C@H](O)[C@H](C)O2)Oc2ccc(cc2Cl)[C@H]1O [Compound 25, Ac-KK-K(Vancomycin)-OH]
CC50 at 24 h (Cytotoxicity MTT assay [6]): > 500 µM
CC50 at 24 h (Cytotoxicity MTT assay [8]): > 500 µM

Compound: CCCCCCCCCCCCCC(=O)N[C@@H](CCCCN)C(=O)N[C@@H](CCCCN)C(=O)N[C@@H](CCCCN)C(=O)N[C@@H](CSSCCNC(=O)[C@H]1NC(=O)[C@H]2NC(=O)[C@H](NC(=O)[C@@H]3NC(=O)[C@H](CC(N)=O)NC(=O)[C@H](NC(=O)[C@@H](CC(C)C)NC)[C@H](O)c4ccc(c(Cl)c4)Oc4cc3cc(c4O[C@@H]3O[C@H](CO)[C@@H](O)[C@H](O)[C@H]3O[C@H]3C[C@](C)(N)[C@H](O)[C@H](C)O3)Oc3ccc(cc3Cl)[C@H]2O)c2ccc(O)c(c2)-c2c(O)cc(O)cc21)C(=O)O [Compound 15, nC13CO-KKKC(SCH 2 CH 2 NH-Vancomycin)-OH]
MIC VRE [2]: 0.02 µg/mL (≈ 0.009 µM)
MIC MDR S.P. [3]: <0.003 µg/mL
MIC VISA [4]: 0.02 µg/mL (≈ 0.009 µM)
MIC MRSA [5]: <0.003 µg/mL
% compound remaining after incubation in 50% human plasma, 0h [10]: 100%
CC50 at 24 h (Cytotoxicity MTT assay [6]): 18 µM
remaining at 1 h, 20 µM (in vitro): 77%
remaining at 3 h, 20 µM (in vitro): 64%
remaining at 6 h, 20 µM (in vitro): 51%
remaining at 24 h, 20 µM (in vitro): 3%
CC50 at 24 h (Cytotoxicity MTT assay [8]): 11 µM

MIC VRE [2]: 4 µg/mL (≈ 1.98 µM)
MIC MDR S.P. [3]: 0.015 µg/mL (≈ 0.00744 µM)
MIC VISA [4]: 0.125 µg/mL (≈ 0.062 µM)
MIC MRSA [5]: 0.015 µg/mL (≈ 0.00744 µM)
MIC VRSA [9]: 0.5 µg/mL (≈ 0.248 µM)
Compound: CCCCCCCCCCC(=O)N[C@@H](CCCCN)C(=O)N[C@@H](CCCCN)C(=O)N[C@@H](CCCCNC(=O)[C@H]1NC(=O)[C@H]2NC(=O)[C@H](NC(=O)[C@@H]3NC(=O)[C@H](CC(N)=O)NC(=O)[C@H](NC(=O)[C@@H](CC(C)C)NC)[C@H](O)c4ccc(c(Cl)c4)Oc4cc3cc(c4O[C@@H]3O[C@H](CO)[C@@H](O)[C@H](O)[C@H]3O[C@H]3C[C@](C)(N)[C@H](O)[C@H](C)O3)Oc3ccc(cc3Cl)[C@H]2O)c2ccc(O)c(c2)-c2c(O)cc(O)cc21)C(=O)NC [Compound 22, nC10CO-KK-K(Vancomycin)-NHMe]
hemolysis at 3 h (Haemolysis assay; 100 µg mL-1): 1.9%
hemolysis at 3 h (Haemolysis assay; 1600 µg mL-1): 2.7%
CC50 at 24 h (Cytotoxicity MTT assay [6]): 47 µM
CC50 at 24 h (Cytotoxicity MTT assay [8]): 80 µM

MIC VRE [2]: 8 µg/mL (≈ 3.78 µM)
MIC MDR S.P. [3]: 0.06 µg/mL (≈ 0.0284 µM)
MIC VISA [4]: 0.75 µg/mL (≈ 0.354 µM)
MIC MRSA [5]: 0.06 µg/mL (≈ 0.0284 µM)
MIC VRSA [9]: 0.75 µg/mL (≈ 0.354 µM)
Compound: CCCCCCCCCC(=O)N[C@@H](CCCCN)C(=O)N[C@@H](CCCCN)C(=O)N[C@@H](CCCCN)C(=O)N[C@@H](CCCCNC(=O)[C@H]1NC(=O)[C@H]2NC(=O)[C@H](NC(=O)[C@@H]3NC(=O)[C@H](CC(N)=O)NC(=O)[C@H](NC(=O)[C@@H](CC(C)C)NC)[C@H](O)c4ccc(c(Cl)c4)Oc4cc3cc(c4O[C@@H]3O[C@H](CO)[C@@H](O)[C@H](O)[C@H]3O[C@H]3C[C@](C)(N)[C@H](O)[C@H](C)O3)Oc3ccc(cc3Cl)[C@H]2O)c2ccc(O)c(c2)-c2c(O)cc(O)cc21)C(=O)O [Compound 36, nC9CO-KKK-K(Vancomycin)-OH]
